Tests used:
DIO mice = assay: Diet-induced obesity (DIO) mouse model; format: in vivo
foot gout mouse model = assay: Foot gout mouse model; format: in vivo; conditions: FIG. 16 and FIG. 17
NLRP3 [1] = target: T1, NLRP3 (Homo sapiens, UniProt Q96P20); assay: THP-1 cell-based NLRP3 activation assay; parameters: endogenous in cells; host or cells: THP-1 cells (PMA-differentiated, LPS-primed, nigericin-stimulated); conditions: PMA-differentiated THP-1 cells, LPS 100 ng/mL then 10 μM nigericin
Method in brief: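 After 30 min compound preincubation, inflammasome activation was triggered with 10 μM nigericin (1 h) in LPS-primed (100 ng/mL, 3 h) THP-1 cells differentiated with PMA at 20 nM/24 h or 500 nM/3 h. CellTiter-Glo measured residual cell viability.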
Target sequence in this assay (Q96P20 whole entry): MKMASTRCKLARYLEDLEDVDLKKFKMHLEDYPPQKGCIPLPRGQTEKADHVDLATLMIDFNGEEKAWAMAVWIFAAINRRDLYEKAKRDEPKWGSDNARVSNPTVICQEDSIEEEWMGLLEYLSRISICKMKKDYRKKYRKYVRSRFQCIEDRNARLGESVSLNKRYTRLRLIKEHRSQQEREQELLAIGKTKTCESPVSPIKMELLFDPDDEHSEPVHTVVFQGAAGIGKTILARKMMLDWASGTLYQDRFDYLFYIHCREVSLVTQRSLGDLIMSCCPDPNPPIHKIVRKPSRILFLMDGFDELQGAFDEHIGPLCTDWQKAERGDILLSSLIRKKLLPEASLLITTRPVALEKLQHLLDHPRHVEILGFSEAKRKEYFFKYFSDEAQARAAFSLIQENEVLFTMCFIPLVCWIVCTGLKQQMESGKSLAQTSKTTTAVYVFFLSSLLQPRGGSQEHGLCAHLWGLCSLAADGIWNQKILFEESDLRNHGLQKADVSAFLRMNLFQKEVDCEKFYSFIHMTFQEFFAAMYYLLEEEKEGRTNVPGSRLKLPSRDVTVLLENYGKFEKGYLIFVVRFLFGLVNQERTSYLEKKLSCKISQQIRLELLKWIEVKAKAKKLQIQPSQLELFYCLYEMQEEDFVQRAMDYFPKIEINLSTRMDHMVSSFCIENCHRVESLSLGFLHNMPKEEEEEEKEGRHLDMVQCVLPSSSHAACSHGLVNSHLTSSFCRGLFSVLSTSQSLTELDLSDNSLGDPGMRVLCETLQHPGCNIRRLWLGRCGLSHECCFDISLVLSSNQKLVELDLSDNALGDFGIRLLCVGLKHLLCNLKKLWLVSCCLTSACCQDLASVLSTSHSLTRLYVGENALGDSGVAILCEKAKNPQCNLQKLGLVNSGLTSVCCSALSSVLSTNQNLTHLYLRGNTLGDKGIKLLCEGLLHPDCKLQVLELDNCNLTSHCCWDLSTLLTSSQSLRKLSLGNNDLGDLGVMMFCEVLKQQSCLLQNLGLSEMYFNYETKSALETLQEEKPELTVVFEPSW

NLRP3 [2] = target: T1, NLRP3; assay: Cryo-EM NLRP3 epitope determination; format: binding; parameters: made in house; host or cells: Sf9 insect cells (baculovirus); conditions: cryo-EM of NLRP3·Compound 007 complex, 3.00 Å resolution, FIG. 1
Excerpt: Compound 007 of the disclosure was used as an exemplary compound for determining the epitope to NLRP3, using cryogenic electron microscopy (cryo-EM).
Full length, human NLRP3 (3-1036, UniProt accession code Q96P20), codon-optimized for Spodoptera frugiperda, was cloned in an in-house modified pACE-Bac1 vector containing an N-terminal MBP-tag, followed by a Tobacco etch virus (TEV) protease cleavage site. For recombinant protein expression of MBP-NLRP3, 1 L of Sf9 insect cells were infected with 3% v/v viral stock of the second virus passage. The expression culture was incubated for 72 h at 27° C. and 80 rpm, and was subsequently harvested by centrifugation at 2000 rpm for 20 min. […] Elution fractions were analyzed by SDS-PAGE and negative stain electron microscopy (EM), before they were plunge frozen for cryo-EM analysis.
The purified NLRP3·Compound 007 complex was applied onto glow-discharged EM-grids (Quantifoil Cu300 R2/1+2 nm carbon support film), incubated for 30s at 100% humidity and 4° C., before it was blotted for 5s with blot force 5 and plunge frozen into liquid ethane using a Vitrobot mark IV plunge freezing device (Thermo Fisher Scientific). […] Using the blob picker, 3,114,152 particles were picked and detected of which 2,058,399 were extracted (search particle diameter […], 588 box size), of which 559,748 particles remained after multiple rounds of 2D classification. […]
Target sequence in this assay (Q96P20 3-1036): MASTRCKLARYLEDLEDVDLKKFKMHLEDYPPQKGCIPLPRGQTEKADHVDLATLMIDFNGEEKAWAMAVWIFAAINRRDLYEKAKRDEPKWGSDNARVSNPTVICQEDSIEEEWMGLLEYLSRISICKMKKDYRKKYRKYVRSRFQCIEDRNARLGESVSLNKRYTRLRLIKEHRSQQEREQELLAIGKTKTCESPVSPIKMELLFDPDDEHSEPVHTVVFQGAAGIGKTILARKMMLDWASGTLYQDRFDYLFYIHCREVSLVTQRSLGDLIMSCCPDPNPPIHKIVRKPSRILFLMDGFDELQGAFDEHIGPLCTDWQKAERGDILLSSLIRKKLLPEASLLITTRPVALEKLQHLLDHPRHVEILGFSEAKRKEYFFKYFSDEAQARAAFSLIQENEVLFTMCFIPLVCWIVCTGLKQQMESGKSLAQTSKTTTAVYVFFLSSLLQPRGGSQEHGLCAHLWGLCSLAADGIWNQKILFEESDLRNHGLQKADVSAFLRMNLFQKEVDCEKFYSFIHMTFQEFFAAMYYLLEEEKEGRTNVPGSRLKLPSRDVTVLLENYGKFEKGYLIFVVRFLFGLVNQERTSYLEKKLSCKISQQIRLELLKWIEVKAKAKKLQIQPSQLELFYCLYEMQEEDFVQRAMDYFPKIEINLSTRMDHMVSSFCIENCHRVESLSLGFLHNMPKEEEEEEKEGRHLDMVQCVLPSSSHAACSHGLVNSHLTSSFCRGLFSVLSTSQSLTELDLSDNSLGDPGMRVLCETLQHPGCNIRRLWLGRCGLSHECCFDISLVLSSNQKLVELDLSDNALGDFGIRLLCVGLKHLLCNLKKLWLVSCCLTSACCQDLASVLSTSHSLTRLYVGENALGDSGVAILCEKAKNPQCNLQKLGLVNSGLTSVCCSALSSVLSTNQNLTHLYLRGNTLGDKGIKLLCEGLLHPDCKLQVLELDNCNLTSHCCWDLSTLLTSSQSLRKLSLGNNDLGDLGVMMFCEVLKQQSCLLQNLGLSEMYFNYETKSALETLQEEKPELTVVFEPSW

[3] = summary, comparable to the effect of Semaglutide

Row | IC50 (NLRP3 [1]) | Structure (SMILES) | body weight of DIO mice (DIO mice; Compound 096/211 study, FIGS. 14A and 14B) | Day 14 BW % change vs. baseline (DIO mice; DIO mice, 50 mpk, po, qd) | food consumption (DIO mice; DIO mice, Compound 096/211 study, FIG. 14) | fat mass (DIO mice; DIO mice, Compound 096/211 study, FIG. 15) | body weight of high fat DIO mice (DIO mice; [3]) | food consumption of high fat DIO mice (DIO mice; [3]) | swelling (foot gout mouse model) | binding site on NLRP3 (NLRP3 [2])
1 | < 100 nM | CCOc1cc(C(=O)N(C)[C@H](CCN(C)C)c2cncc3cn[nH]c23)ccc1-c1ccccc1 [Compound 096] | dose-dependent effect on reducing body weight | −11.9% | dose-dependent effect on reducing food consumption | caused a change in fat mass | significantly reduced | significantly reduced | reduce swelling in a foot gout mouse model in a dose dependent manner | 
2 | < 100 nM | CCOc1cc(C(=O)N(C)[C@H](CCO)c2cncc3cn[nH]c23)ccc1-c1cccc(F)c1 [Compound 007] |  |  |  |  |  |  |  | binds in a pocket on the surface of the NACHT domain of NLRP3

— patent US12509459B2, “Inhibitors of NLRP3 inflammasome” (BioAge Labs, Inc., priority 2024, dated 2025)
